Measured values: ChEMBL document CHEMBL5506019 (J Med Chem, 2024)
Calls of active or inactive are those of the source. No cut-off for these calls is given here.

Key:
Format in all cases: functional, cell-based
[1] = target: T1, 5-hydroxytryptamine receptor 2A (Homo sapiens, UniProt P28223); assay: Agonist activity at human 5-HT2AR expressed in HEK293 cells assessed as maximal response incubated upto 90 sec by Fluo-4 AM dye based Ca2+ imaging assay relative to 5-HT; details: filed as agonist
[2] = target: T1, 5-hydroxytryptamine receptor 2A; assay: Agonist activity at human 5-HT2AR expressed in HEK293 cells incubated upto 90 sec by Fluo-4 AM dye based Ca2+ imaging assay
[3] = target: T2, 5-hydroxytryptamine receptor 2C (Homo sapiens) (UniProt P28335); assay: Agonist activity at human 5-HT2CR expressed in HEK293 cells upto 50 uM incubated upto 90 sec by Fluo-4 AM dye based Ca2+ imaging assay
T2 sequence (whole entry): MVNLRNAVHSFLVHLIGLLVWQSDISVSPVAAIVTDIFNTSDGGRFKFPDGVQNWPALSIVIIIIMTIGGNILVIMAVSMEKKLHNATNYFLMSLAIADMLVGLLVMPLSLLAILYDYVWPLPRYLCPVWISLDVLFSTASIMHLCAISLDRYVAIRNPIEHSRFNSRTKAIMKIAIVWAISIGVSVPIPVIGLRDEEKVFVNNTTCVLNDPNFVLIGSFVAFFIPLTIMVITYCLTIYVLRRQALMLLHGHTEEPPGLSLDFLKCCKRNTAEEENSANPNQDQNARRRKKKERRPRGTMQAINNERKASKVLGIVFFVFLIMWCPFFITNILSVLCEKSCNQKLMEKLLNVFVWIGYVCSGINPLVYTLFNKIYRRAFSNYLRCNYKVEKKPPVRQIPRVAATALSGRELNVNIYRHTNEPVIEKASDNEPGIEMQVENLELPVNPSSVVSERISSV

[4] = target: T1, 5-hydroxytryptamine receptor 2A; assay: Agonist activity at human 5-HT2AR expressed in HEK293 cells upto 50 uM incubated upto 90 sec by Fluo-4 AM dye based Ca2+ imaging assay

T1 sequence (P28223 whole entry): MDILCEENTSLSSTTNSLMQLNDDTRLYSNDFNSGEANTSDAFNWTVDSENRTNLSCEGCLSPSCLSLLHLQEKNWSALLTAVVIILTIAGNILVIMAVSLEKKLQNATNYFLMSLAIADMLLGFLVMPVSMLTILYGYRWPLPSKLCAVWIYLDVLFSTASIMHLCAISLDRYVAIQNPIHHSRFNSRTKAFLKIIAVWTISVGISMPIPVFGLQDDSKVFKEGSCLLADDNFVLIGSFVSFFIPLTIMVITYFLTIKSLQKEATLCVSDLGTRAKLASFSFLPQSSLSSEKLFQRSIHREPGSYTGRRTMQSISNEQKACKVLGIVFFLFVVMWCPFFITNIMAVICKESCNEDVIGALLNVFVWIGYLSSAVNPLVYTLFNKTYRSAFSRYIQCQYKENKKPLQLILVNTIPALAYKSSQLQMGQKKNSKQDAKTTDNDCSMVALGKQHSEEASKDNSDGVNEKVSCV

SMILES | Rmax [1] | EC50 [2] | Activity [3] | Activity [4]
COc1cc(CCN)c(OC)cc1Br | 68% | 1.6 nM | – | –
CCN1CCC[C@@H](c2cc(OC)c(C(F)(F)F)cc2OC)C1 | – | – | inactive | –
CCN1CCC[C@H](c2cc(OC)c(C(F)(F)F)cc2OC)C1 | – | – | inactive | inactive
COc1cc(C2CCCNC2)ccc1C(F)(F)F (configuration not stated) | – | – | inactive | –
COc1ccc(OC)c(C2CCCNC2)c1 (racemic) | – | – | inactive | inactive
FC(F)(F)c1ccc(C2CCCNC2)cc1 (racemic) | – | – | inactive | inactive
CCOc1cc(C(F)(F)F)c(OCC)cc1C1CCCNC1 (stereo in doubt) | – | – | inactive | –
CCOc1cc(C(F)(F)F)c(OCC)cc1C1CCCNC1 (stereo in doubt; 26(eu)) | – | – | inactive | –
